Measurements: PubChem BioAssay (NCI)
Values joined by “and” are separate entries in the source; they are usually repeats but may differ in a detail not shown here. Identical values can stand only once.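 Compound exposure: 48 hours, 5 concentrations, 96-well plates. The concentration for full growth arrest is given as TGI.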

Tests used:
Experiment in all cases: growth of human tumour cells (NCI), 48 h
[1] = tested on: DU-145 prostate
[2] = tested on: A549 NSCLC
[3] = tested on: OVCAR-5 ovarian
[4] = tested on: U251 CNS
[5] = tested on: TK-10 renal
[6] = tested on: HCC-2998 colon
[7] = tested on: NCI-H522 lung
[8] = tested on: NCI-H460 lung

Row | SMILES | TGI [1] | TGI [2] | TGI [3] | TGI [4] | TGI [5] | TGI [6] | TGI [7] | TGI [8]
1 | Cc1ccc(NC(=S)NNC(=O)c2cc(-c3ccccc3)nc3ccccc23)cc1C | 45.4 µM | 43.7 µM | 76.9 µM | 49.4 µM | 63.1 µM | 35.2 µM | 50.8 µM | 38.7 µM
2 | CO/N=C1/C(n2[nH]c(=O)n(-c3ccccc3)c2=O)C2C=CC1n1c(=O)n(-c3ccccc3)c(=O)n12 (centres undefined) | > 100 µM | > 100 µM | > 100 µM | > 100 µM | > 100 µM | > 100 µM | > 100 µM | > 100 µM
3 | O=[N+]([O-])c1cccc2nc3ccccc3c(NCCNCCO)c12 |  | 0.145 µM and 0.144 µM | 0.088 µM and 0.0672 µM | 0.0467 µM and 0.0298 µM |  | 0.0101 µM | 0.00272 µM | 0.108 µM
4 | COc1ccc2c(-c3ccc(O)cc3)c(Oc3ccccc3)c(=O)oc2c1 | > 50.8 µM | > 43 µM | > 100 µM | > 61.5 µM | 18.1 µM | > 69.3 µM | > 100 µM | > 100 µM
5 | Cc1ccc(N2C(=O)CC(=O)N(NC(=O)C(C)Oc3ccccc3C)C2=S)cc1 (centres undefined) | > 100 µM | > 100 µM | > 100 µM | > 100 µM | > 100 µM | > 100 µM | > 100 µM | > 100 µM
6 | COC(=O)[C@H]1ON2O[C@@H](O[C@H]3CCCC[C@@H]3C(C)(C)c3ccccc3)C[C@@H]3CC[C@H]1[C@@]32C | > 100 µM | > 100 µM | > 100 µM | > 100 µM | > 100 µM | > 100 µM | > 100 µM | > 100 µM
7 | COc1ccc(S(=O)Cc2cc(OC)ccc2OC)cc1 (centres undefined) | > 100 µM | > 100 µM | > 100 µM | > 100 µM | > 100 µM | > 100 µM | > 100 µM | > 100 µM
8 | CCCCCC(/C=N/NC(N)=S)C(O)(C(F)(F)F)C(F)(F)F (centres undefined) | > 10 µM | > 10 µM | > 10 µM | > 10 µM | > 10 µM | > 10 µM | > 10 µM | > 10 µM
9 | C(/C=N/NC1=NCCN1)=N\NC1=NCCN1 |  | > 100 µM | > 100 µM | > 100 µM |  | > 100 µM | > 100 µM | > 100 µM
10 | COc1cccc2c1C(=O)c1ccc3cc(CO)cc(O)c3c1C2=O | 3.31 µM | 2.76 µM | 3.92 µM | 5.41 µM | 8.43 µM |  | 5.89 µM | 1.17 µM
11 | CSCCCNC(=O)c1csc([C@@H](CSC)NC(=O)CCNC(=O)[C@@H](NC(=O)OCC(Br)(Br)Br)C(C)O)n1 (some centres undefined) | > 100 µM | > 100 µM | > 100 µM | > 100 µM | > 100 µM | > 100 µM | > 100 µM | > 100 µM
12 | C/C(=N/NC(=S)N(Cc1ccccn1)Cc1ccccn1)c1cnccn1 | > 33.3 µM | 14.5 µM | 32.6 µM | > 47.9 µM | 19.2 µM | > 43.4 µM | 1.56 µM | > 33.1 µM
13 | c1ccc(-c2cc(-c3cc(-c4ccccc4)n[nH]3)[nH]n2)cc1 | > 100 µM | > 100 µM | > 100 µM | > 100 µM | > 100 µM | > 100 µM | > 100 µM | > 100 µM
14 | COc1ccc(/C=N/n2c(C)n[nH]c2=O)cc1 | > 100 µM | > 100 µM | > 100 µM | > 100 µM |  | > 100 µM |  | > 100 µM
15 | NNC(=O)CCCCCCCC(=O)O | > 100 µM | > 100 µM | > 100 µM | > 100 µM | > 100 µM | > 100 µM | > 100 µM | > 100 µM
16 | COc1cc(/C=C/C(=O)O)ccc1O | > 100 µM | > 100 µM | > 100 µM | > 100 µM | > 100 µM | > 100 µM | > 100 µM | > 100 µM
17 | COc1ccc(C2c3cc4c(cc3OC(N3CCOCC3)C2C)OCO4)c(OC)c1 (centres undefined) | 54.7 µM | 58 µM | 73.9 µM | 15.5 µM | 69.6 µM | 14.5 µM | 8.95 µM | 24.4 µM
18 | O=C1NC(N/N=C/C(O)C(O)C(O)C(O)CO)=N/C1=C\c1cccs1 (centres undefined) | > 100 µM | > 100 µM | > 100 µM | > 100 µM | > 100 µM | > 100 µM | > 100 µM | > 100 µM
19 | CCOC(=O)c1ccc(Nc2nc3ccc(C(F)(F)F)cc3nc2-c2ccccc2)cc1 | > 100 µM | > 100 µM | > 100 µM | > 100 µM | > 100 µM | > 100 µM | > 100 µM | > 100 µM
20 | N#Cc1nsnc1-c1nc(-c2nsnc2C#N)nc(-c2nsnc2C#N)n1 | > 100 µM |  | > 100 µM | > 100 µM | > 100 µM | > 100 µM | > 100 µM | > 100 µM
21 | CCOC(=O)CC[C@@H](NC(=O)c1ccc(NCc2ccc3nc(OC)c(OC)nc3c2)cc1)C(=O)OCC | > 100 µM | > 100 µM | > 100 µM | > 100 µM | > 100 µM | > 100 µM | 50.5 µM | 44.3 µM
22 | C=CCOc1ccc(C2c3c([nH][nH]c3=O)CC(C)(O)C2C(=O)OC)cc1OC (centres undefined) | > 100 µM | > 100 µM | > 100 µM | > 100 µM | > 100 µM | > 100 µM | > 100 µM | > 100 µM
23 | COc1ccc(NC(C)=O)c(C(=O)CCNC(C)=O)c1 | > 100 µM | > 100 µM | > 100 µM | > 100 µM | > 100 µM |  | > 100 µM | > 100 µM
24 | CN(C)CCCNC(=O)CNC(=O)c1cc(NC(=O)c2cc(NC(=O)c3cc(NC(=O)CCNC(=O)c4cc(NC(=O)c5cc(NC(=O)c6nccn6C)cn5C)cn4C)cn3C)cn2C)cn1C | > 100 µM | > 100 µM | > 100 µM | > 100 µM | > 100 µM | > 100 µM | > 100 µM | > 100 µM
25 | CC1(C)OC2CN(C(=O)OCc3ccccc3)C(CO)C2O1 (centres undefined) | > 100 µM | > 100 µM | > 100 µM | > 100 µM | > 100 µM | > 100 µM | > 100 µM | > 100 µM
26 | O=[N+]([O-])/C(C(Cl)=C(Cl)Cl)=C(/Sc1ccccc1)N1CCOCC1 | 25.2 µM | 41.7 µM | 31 µM | 23.5 µM | 18.3 µM | 29.9 µM | 9.36 µM | 27.1 µM
